Consider two compounds from publication PMC3161034 (BMC Cancer, 2011).

Data set [1] has as its system patients with solid tumors. Briefly: Adverse events graded by CTCAE version 3.0, relatedness by investigator. It counts as in vivo, human. The note with it: for Patients discontinuing treatment with the drug because of adverse events: all cohorts. The procedure:
Cohort enrollment could be expanded to ensure that at least 6 evaluable patients were enrolled or in the event of unresolved safety, pharmacokinetic, or other concerns. The overall sample size could be further increased if additional dose cohorts were considered justified based on the results from the dose-escalation portion of the study. For continuous endpoints, the mean, standard error or standard deviation (SD); median; 25th and 75th percentiles; and minimum and maximum were calculated. For discrete data, the frequency and percent distributions were calculated. No formal comparisons between cohorts were performed. The data were analyzed using SAS software version 8.2 (SAS Institute, Cary, NC). […] The safety analysis set included all patients who received at least 1 dose of study therapy.

Another data set in a line: clinical. The settings on record: for Tmax: Median tmax. The procedure: Plasma concentrations of motesanib were analyzed using a validated liquid chromatography/tandem mass spectrometry (LC-MS/MS) method with a lower limit of quantitation (LLOQ) of 0.2 ng/mL (Cedra Corp., Austin, TX).
Pharmacokinetic parameter estimates were calculated according to standard noncompartmental methods using WinNonlin software (version 5.1.1; Pharsight Corporation, Mountain View, CA) and summarized by dose level. […] For the BID cohort, AUC0—24 values for motesanib were determined by 2 × AUC0—12. The terminal elimination rate constant (λZ) was determined by linear regression of the natural logarithms of plasma concentrations versus time during the terminal phase; the corresponding t1/2 was calculated.
The GLSM were calculated by first obtaining the least squares means for the log-transformed Cmax values (logCmax) and AUC0—24 values (logAUC0—24) for weeks 3 and 2, and then converting these values back to the original scale. The ratio and 90% confidence interval (CI) of GLSM was calculated by first estimating the difference (and 90% CI) in the least squares means between weeks 3 and 2 for logCmax and logAUC0—24, and then converting the numbers back to their original scale.

The test system of data set [2] is patients with advanced NSCLC. The note with it: cited from earlier work.
In data set [3] the test system is cytochrome P450 (CYP) 3A4. The note with it: cited from earlier work.
A further data set relates to CYP1A2. The settings on record: cited from earlier work.
A further data set concerns deoxycytidine deaminase. On the set-up: method as in PMID 16807468. The settings on record: cited from earlier work.
The mark [4] stands for this setting: 56 patients who received erlotinib.

As a reminder, the half-life is the time in which the quantity being followed falls by half. Broadly, the Tmax is the time at which the peak concentration occurs.

In data set [1] (setting [4]), `C#Cc1cccc(Nc2ncnc3cc(OCCOC)c(OCCOC)cc23)c1` [erlotinib] had an Erlotinib-related anorexia of 16 n, an Erlotinib-related diarrhea of 35 n, an Erlotinib-related fatigue of 14 n and an Erlotinib-related nausea of 23 n. In data set [1] (setting [4]), this compound came in with an Erlotinib-related rash of 42 n and an Erlotinib-related vomiting of 15 n. The “Patients discontinuing treatment with the drug because of adverse events” value in data set [1] is reported as 7 n. Besides, in data set [1] (present study, all patients), the “Incidence of erlotinib-related skin rash” value is recorded as 75%. Moreover, in the data set “clinical” (human, in vivo, 100 mg), the “Mean t1/2, z” value lay in the range of 12 to 19 h and the Tmax is 2 to 6 h. The compound also displayed a half-life in “clinical” (human, in vivo, 100 mg, Mean t1/2, z) of 17 to 33 h. Also, in “clinical” (human, in vivo, 150 mg), the Median tmax lay in the range of 2 to 4 h and the Tmax was 1 to 3 h. For the same compound, in the data set “clinical” (week 3, 100 mg erlotinib QD with gemcitabine and motesanib), the Overall median tmax turned out to be 2 h. Besides, in data set [2] (phase 3, advanced NSCLC after failed first-line therapy), the Progression-free survival is 1.7 mo. The Response rate in data set [2] (phase 3, P = 0.006) is reported as 6.2%. In addition, in data set [2] (phase 3), the Overall survival is given as 9.2 mo. For the same compound, the “Metabolism by CYP3A4” value in data set [3] is on record as “metabolized at least in part”. Also, in the data set on CYP1A2, the “Metabolism by CYP1A2” value is recorded as “metabolized at least in part”.
Take `Nc1ccn([C@@H]2O[C@H](CO)[C@@H](O)C2(F)F)c(=O)n1` [gemcitabine, reference compound]: the “Patients discontinuing treatment with the drug because of adverse events” value in data set [1] came to 8 n. In the data set on deoxycytidine deaminase, the “Metabolism by deoxycytidine deaminase” value is on record as “primarily metabolized”.
